# Measured values as given in US20240208992A1, “MACROCYCLES AS CFTR MODULATORS” (Idorsia Pharmaceuticals Ltd, priority 2021, published 2024).
# Molecular target: human F508del-CFTR (Homo sapiens, UniProt P13569, DEL508-508)
# Experiment: F508del-CFTR cell surface expression (corrector activity), DiscoveRx ß-galactosidase complementation chemiluminescence assay in recombinant U2OS cell line;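 note: U2OS cells co-expressing ProLink-tagged F508del-CFTR and a membrane-anchored enzyme acceptor, where more surface CFTR restores β-galactosidase activity measured by chemiluminescence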
# Details: for EC50: EC50, F508del-CFTR cell surface expression
# [1] = U2OS cell line, 16h compound incubation, geomean values
# [2] = U2OS, in relation to the Emax of the corrector lumacaftor (=100%), U2OS cell line, 16h compound incubation, arithmetic mean values
# [3] = U2OS cells, 16h compound incubation, geomean of several measurements
# [4] = U2OS, in relation to the Emax of the corrector lumacaftor (=100%), U2OS cells, 16h compound incubation, arithmetic mean
# [5] = U2OS cells, 16h compound incubation, geomean values
# [6] = U2OS, in relation to Emax of corrector lumacaftor (=100%), arithmetic mean values
# Chain of human F508del-CFTR (P13569 with tags, fused parts or gaps DEL508-508): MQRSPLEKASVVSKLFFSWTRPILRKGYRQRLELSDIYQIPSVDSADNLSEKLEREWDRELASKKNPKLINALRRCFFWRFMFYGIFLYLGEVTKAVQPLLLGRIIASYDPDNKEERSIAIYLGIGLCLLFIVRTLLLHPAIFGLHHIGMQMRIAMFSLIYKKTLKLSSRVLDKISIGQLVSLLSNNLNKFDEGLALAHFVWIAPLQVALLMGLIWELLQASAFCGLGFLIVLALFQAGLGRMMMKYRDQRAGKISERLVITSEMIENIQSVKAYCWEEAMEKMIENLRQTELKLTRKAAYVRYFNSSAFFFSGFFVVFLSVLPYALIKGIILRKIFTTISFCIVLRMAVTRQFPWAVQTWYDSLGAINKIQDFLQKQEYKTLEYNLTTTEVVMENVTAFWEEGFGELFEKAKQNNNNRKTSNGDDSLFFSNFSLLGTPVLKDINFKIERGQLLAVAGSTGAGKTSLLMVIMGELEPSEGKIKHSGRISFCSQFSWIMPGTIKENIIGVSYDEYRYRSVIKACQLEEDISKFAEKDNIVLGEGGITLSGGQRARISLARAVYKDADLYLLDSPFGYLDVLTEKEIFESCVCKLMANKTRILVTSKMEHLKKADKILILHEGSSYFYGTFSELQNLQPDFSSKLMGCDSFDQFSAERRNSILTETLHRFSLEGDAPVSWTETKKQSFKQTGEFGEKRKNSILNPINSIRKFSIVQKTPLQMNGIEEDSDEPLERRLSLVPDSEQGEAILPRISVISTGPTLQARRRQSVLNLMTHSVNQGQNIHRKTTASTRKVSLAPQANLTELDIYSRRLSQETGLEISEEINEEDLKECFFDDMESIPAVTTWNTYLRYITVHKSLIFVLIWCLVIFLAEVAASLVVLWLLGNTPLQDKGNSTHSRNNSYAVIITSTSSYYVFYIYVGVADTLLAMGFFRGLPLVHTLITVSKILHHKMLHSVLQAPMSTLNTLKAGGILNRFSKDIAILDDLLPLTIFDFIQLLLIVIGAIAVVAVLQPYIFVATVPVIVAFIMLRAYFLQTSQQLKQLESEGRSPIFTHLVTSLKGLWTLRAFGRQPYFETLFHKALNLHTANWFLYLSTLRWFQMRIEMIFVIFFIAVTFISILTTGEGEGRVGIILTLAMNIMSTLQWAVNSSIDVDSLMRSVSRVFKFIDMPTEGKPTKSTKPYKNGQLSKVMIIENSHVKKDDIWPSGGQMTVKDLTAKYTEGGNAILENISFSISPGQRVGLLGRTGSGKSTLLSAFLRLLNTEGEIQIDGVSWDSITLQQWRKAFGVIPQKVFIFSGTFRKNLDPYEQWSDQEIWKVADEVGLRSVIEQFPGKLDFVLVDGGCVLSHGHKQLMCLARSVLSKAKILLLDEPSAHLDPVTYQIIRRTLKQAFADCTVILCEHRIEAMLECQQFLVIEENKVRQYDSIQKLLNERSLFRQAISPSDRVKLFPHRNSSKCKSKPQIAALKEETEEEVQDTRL
Compound,EC50 [3],Emax [4],EC50 [1],further results
"COc1cccc(CCNC(=O)[C@@H]2CC(=O)N(C)[C@@H](CC3CCCCC3)C(=O)N(CCC3CCCCC3)CC(=O)N[C@H](Cc3ccccc3)COc3ccc4ccccc4c3C(=O)N2)c1 (mixture of isomers) [Example 301, (3RS,7S,13R)-13-benzyl-9-(2-cyclohexylethyl)-7-(cyclohexylmethyl)-N-(3-methoxyphenethyl)-6-methyl-1,5,8,11-tetraoxo-1,2,3,4,5,6,7,8,9,10,11,12,13,14-tetradecahydronaphtho[1,2-p][1]oxa[4,7,10,14]tetraazacycloheptadecine-3-carboxamide]",–,–,112 nM,–
"COc1cccc(CCNC(=O)[C@@H]2CC(=O)N(C)[C@@H](CC(C)C)C(=O)N(C)CC(=O)N[C@H](Cc3ccccc3)COc3ccc(OC)cc3C(=O)N2)c1 [Example 231, (3R,9S,13S)-3-benzyl-9-isobutyl-17-methoxy-N-(3-methoxyphenethyl)-7,10-dimethyl-5,8,11,15-tetraoxo-2,3,4,5,6,7,8,9,10,11,12,13,14,15-tetradecahydrobenzo[p][1]oxa[4,7,10,14]tetraazacycloheptadecine-13-carboxamide]",–,–,592 nM,Emax [2]: 173%
"CC(C)C[C@H]1C(=O)N(C)C2(CC2)C(=O)N[C@H](Cc2ccccc2)COc2cnc3ccc(F)cc3c2C(=O)N[C@H](C(=O)NCCc2cccc(C(F)(F)F)c2)CC(=O)N1C [Example 169, (3′S,7′S,13′R)-13′-benzyl-20′-fluoro-7′-isobutyl-6′,9′-dimethyl-1′,5′,8′,11′-tetraoxo-N-(3-(trifluoromethyl)phenethyl)-2′,3′,4′,5′,6′,7′,8′,9′,11′,12′,13′,14′-dodecahydro-1′H-spiro[cyclopropane-1,10′-[1]oxa[4,7,10,14]tetraazacycloheptadecino[17,16-c]quinoline]-3′-carboxamide]",–,–,334 nM,Emax [2]: 170%
"COc1cccc(CCNC(=O)[C@@H]2CC(=O)N(C)[C@@H](CC(C)C)C(=O)N(C)CC(=O)N[C@H](Cc3ccccc3)COc3cc4c(cc3C(=O)N2)OCO4)c1OC (mixture of isomers) [Example 151, (7R,13S,17RS)-7-benzyl-N-(2,3-dimethoxyphenethyl)-13-isobutyl-11,14-dimethyl-9,12,15,19-tetraoxo-6,7,8,9,10,11,12,13,14,15,16,17,18,19-tetradecahydro-[1,3]dioxolo[4′,5′:4,5]benzo[1,2-p][1]oxa[4,7,10,14]tetraazacycloheptadecine-17-carboxamide]",–,–,759 nM,–
"COc1cccc(CCNC(=O)[C@@H]2CC(=O)N(C)[C@@H](CC3CCCC3)C(=O)N(CC[C@H]3CCCCO3)CC(=O)N[C@H](Cc3ccccc3)COc3ccc4ccccc4c3C(=O)N2)c1 (racemic) [Example 298, (3RS,7S,13R)-13-benzyl-7-(cyclopentylmethyl)-N-(3-methoxyphenethyl)-6-methyl-1,5,8,11-tetraoxo-9-(2-((SR)-tetrahydro-2H-pyran-2-yl)ethyl)-1,2,3,4,5,6,7,8,9,10,11,12,13,14-tetradecahydronaphtho[1,2-p][1]oxa[4,7,10,14]tetraazacycloheptadecine-3-carboxamide]",–,–,220 nM,Emax [2]: 186%
"CC(C)C[C@H]1C(=O)N2CCCC[C@@H]2C(=O)N[C@H](Cc2ccccc2)COc2ccncc2C(=O)N[C@H](C(=O)NCCc2ccc3c(c2)OCC3)CC(=O)N1C [Example 593, (7S,11S,17aR,20R)-20-benzyl-N-(2-(2,3-dihydrobenzofuran-6-yl)ethyl)-11-isobutyl-10-methyl-5,9,12,18-tetraoxo-5,6,7,8,9,10,11,12,15,16,17,17a,18,19,20,21-hexadecahydro-14H-dipyrido[2,1-f:3′,4′-p][1]oxa[4,7,10,14]tetraazacycloheptadecine-7-carboxamide]",–,–,–,EC50 [5]: 614 nM; Emax [6]: 190%
"CCc1nc(CCNC(=O)[C@@H]2CC(=O)N(C)[C@@H](CC(C)C)C(=O)N(C)C3(CC3)C(=O)N[C@H](Cc3ccccc3)COc3cnc4ccccc4c3C(=O)N2)no1 [Example 114, (3′S,7′S,13′R)-13′-benzyl-N-(2-(5-ethyl-1,2,4-oxadiazol-3-yl)ethyl)-7′-isobutyl-6′,9′-dimethyl-1′,5′,8′,11′-tetraoxo-2′,3′,4′,5′,6′,7′,8′,9′,11′,12′,13′,14′-dodecahydro-1′H-spiro[cyclopropane-1,10′-[1]oxa[4,7,10,14]tetraazacycloheptadecino[17,16-c]quinoline]-3′-carboxamide]",–,–,924 nM,Emax [2]: 220%
"COc1nccc2c1C(=O)N[C@H](C(=O)NCCc1cc(C3CC3)on1)CC(=O)N(C)[C@@H](CC(C)C)C(=O)N(C)[C@H](CC1CCC(F)(F)CC1)C(=O)N[C@H](Cc1ccccc1)CO2 [Example 682, (3R,6R,9S,13S)-3-benzyl-N-(2-(5-cyclopropylisoxazol-3-yl)ethyl)-6-((4,4-difluorocyclohexyl)methyl)-9-isobutyl-16-methoxy-7,10-dimethyl-5,8,11,15-tetraoxo-2,3,4,5,6,7,8,9,10,11,12,13,14,15-tetradecahydropyrido[3,4-p][1]oxa[4,7,10,14]tetraazacycloheptadecine-13-carboxamide]",–,–,–,EC50 [5]: 110 nM; Emax [6]: 351%
"COc1cccc(CCNC(=O)[C@@H]2CC(=O)N(C)[C@@H](CC3CCCC3)C(=O)N(C[C@@H]3CCCCO3)CC(=O)N[C@H](Cc3ccccc3)COc3ccc4ccccc4c3C(=O)N2)c1 (racemic) [Example 295, (3RS,7S,13R)-13-benzyl-7-(cyclopentylmethyl)-N-(3-methoxyphenethyl)-6-methyl-1,5,8,11-tetraoxo-9-(((R)-tetrahydro-2H-pyran-2-yl)methyl)-1,2,3,4,5,6,7,8,9,10,11,12,13,14-tetradecahydronaphtho[1,2-p][1]oxa[4,7,10,14]tetraazacycloheptadecine-3-carboxamide]",–,–,–,"Emax (in relation to the Emax of the corrector lumacaftor (=100%), U2OS cell line, 16h compound incubation, arithmetic mean values): 174%"

# Second part, led by results:
EC50 [3],Emax [4],Compound,EC50 [1],further results
10 nM,391%,"COc1cc(CCNC(=O)[C@@H]2CC(=O)N(C)[C@@H](CC(C)C)C(=O)N(C)[C@H](Cc3nc(C(F)(F)F)no3)C(=O)N[C@H](Cc3ccccc3)COc3cnc4ccc(F)cc4c3C(=O)N2)on1 [Example 809, (3S,7S,10R,13R)-13-benzyl-20-fluoro-7-isobutyl-N-(2-(3-methoxyisoxazol-5-yl)ethyl)-6,9-dimethyl-1,5,8,11-tetraoxo-10-((3-(trifluoromethyl)-1,2,4-oxadiazol-5-yl)methyl)-1,2,3,4,5,6,7,8,9,10,11,12,13,14-tetradecahydro-[1]oxa[4,7,10,14]tetraazacycloheptadecino[17,16-c]quinoline-3-carboxamide]",–,–
32 nM,378%,"COCCc1ccc(-c2noc(C[C@@H]3C(=O)N[C@H](Cc4ccccc4)COc4ccnc(OC)c4C(=O)N[C@H](C(=O)NCCn4ncc(C5CC5)n4)CC(=O)N(C)[C@@H](CC(C)C)C(=O)N3C)n2)cc1 [Example 871, (3R,6R,9S,13S)-3-benzyl-N-(2-(4-cyclopropyl-2H-1,2,3-triazol-2-yl)ethyl)-9-isobutyl-16-methoxy-6-((3-(4-(2-methoxyethyl)phenyl)-1,2,4-oxadiazol-5-yl)methyl)-7,10-dimethyl-5,8,11,15-tetraoxo-2,3,4,5,6,7,8,9,10,11,12,13,14,15-tetradecahydropyrido[3,4-p][1]oxa[4,7,10,14]tetraazacycloheptadecine-13-carboxamide]",–,–
33 nM,502%,"COc1noc(CCNC(=O)[C@@H]2CC(=O)N(C)[C@@H](CC(C)C)C(=O)N(C)[C@H](Cc3nc(C(F)(F)F)no3)C(=O)N[C@H](Cc3ccccc3)COc3cc(C)nc(OC)c3C(=O)N2)c1F [Example 945, (3R,6R,9S,13S)-3-benzyl-N-(2-(4-fluoro-3-methoxyisoxazol-5-yl)ethyl)-9-isobutyl-16-methoxy-7,10,18-trimethyl-5,8,11,15-tetraoxo-6-((3-(trifluoromethyl)-1,2,4-oxadiazol-5-yl)methyl)-2,3,4,5,6,7,8,9,10,11,12,13,14,15-tetradecahydropyrido[3,4-p][1]oxa[4,7,10,14]tetraazacycloheptadecine-13-carboxamide]",–,–
971 nM,247%,"Cc1cc2c(c3cccnc13)C(=O)N[C@H](C(=O)NCCn1nnc(C3CC3)n1)CC(=O)N(C)[C@@H](CC(C)C)C(=O)N1CCCCC1C(=O)N[C@H](Cc1ccccc1)CO2 (stereo partly drawn) [Example 928, (9S,13S,19aS,22R)-22-benzyl-N-(2-(5-cyclopropyl-2H-tetrazol-2-yl)ethyl)-13-isobutyl-2,12-dimethyl-7,11,14,20-tetraoxo-7,8,9,10,11,12,13,14,17,18,19,19a,20,21,22,23-hexadecahydro-16H-pyrido[2′,1′:6,7][1]oxa[4,7,10,14]tetraazacycloheptadecino[16,17-f]quinoline-9-carboxamide]",–,–
385 nM,359%,"COc1cc(CCNC(=O)[C@@H]2CC(=O)N(C)[C@@H](CC(C)C)C(=O)N(C)C3(CC3)C(=O)N[C@H](Cc3ccccc3)COc3ccc4ncc(F)cc4c3C(=O)N2)on1 [Example 818, (3′S,7′S,13′R)-13′-benzyl-20′-fluoro-7′-isobutyl-N-(2-(3-methoxyisoxazol-5-yl)ethyl)-6′,9′-dimethyl-1′,5′,8′,11′-tetraoxo-2′,3′,4′,5′,6′,7′,8′,9′,11′,12′,13′,14′-dodecahydro-1′H-spiro[cyclopropane-1,10′-[1]oxa[4,7,10,14]tetraazacycloheptadecino[16,17-f]quinoline]-3′-carboxamide]",–,–
